The values that follow come from patent US8574563B2 (Bristol-Myers Squibb Company, priority 2006, dated 2013).

For one experiment, the system named is HCV 1b-377-neo replicon cells. As to the kind of experiment: HCV replicon assay, HCV 1b-377-neo replicon cells (1b FRET). It is filed as cell-based, Hepatitis C virus genotype 1b. To be noted: HCV 1b-377-neo replicon cells; HCV 1b genotype; read-out: EC50 range against HCV 1b (Table 2, Range). The method in brief:
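Compounds tested in HCV genotype 1b-377-neo replicon cells with a FRET read-out. Cells resistant to a reference NS5A inhibitor through a Y2065H NS5A mutation were run alongside wild-type cells.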
On the technique in general: A replicon is a self-replicating genome or part of one, used to study replication in cells.
On to `COC(=O)N[C@@H](C(=O)N1CCC[C@H]1c1ncc(-c2ccc(-c3ccc(-c4cnc([C@@H]5CCCN5C(=O)[C@@H]5C[C@H](F)CN5)[nH]4)cc3)cc2)[nH]1)c1ccccc1` [Example 79, methyl ((1R)-2-((2)S-2-(5-(4′-(2-((2S)-1-((4S)-4-fluoro-L-prolyl)-2-pyrrolidinyl)-1H-imidazol-5-yl)-4-biphenylyl)-1H-imidazol-2-yl)-1-pyrrolidinyl)-2-oxo-1-phenylethyl)carbamate], for which the EC50 lay within 0.001 to 0.999 nM.

Take `COC(=O)N[C@@H](C(=O)N1CCC[C@H]1c1ncc(-c2ccc(-c3ccc(-c4cnc([C@@H]5CCCN5C(=O)[C@@H]5C[C@@H]6C[C@@H]6N5)[nH]4)cc3)cc2)[nH]1)c1ccccc1` [Example 83, methyl ((1R)-2-((2)S-2-(5-(4′ (2-((2S)-1-((1S,3S,5S)-2-azabicyclo[3.1.0]hex-3-ylcarbonyl)-2-pyrrolidinyl)-1H-imidazol-5-yl)-4-biphenylyl)-1H-imidazol-2-yl)-1-pyrrolidinyl)-2-oxo-1-phenylethyl)carbamate]: the EC50 lay in the range of 0.001 to 0.999 nM.

Still in this experiment, the particulars now being: Hepatitis C virus, HCV 1b-377-neo replicon cells; HCV 1b genotype; read-out: EC50 range against HCV 1b (Table 2, Range).
Take `COC(=O)N[C@@H](C(=O)N1CCC[C@H]1c1ncc(-c2ccc(-c3ccc(-c4cnc([C@@H]5CCCN5C(=O)OC)[nH]4)cc3)cc2)[nH]1)c1ccccc1` [Example 77, methyl (2S)-2-(5-(4′-(2-((2S)-1-((2R)-2-((methoxycarbonyl)amino)-2-phenylacetyl)-2-pyrrolidinyl)-1H-imidazol-5-yl)-4-biphenylyl)-1H-imidazol-2-yl)-1-pyrrolidinecarboxylate]: the concentration for a half-maximal effect (EC50) fell in the range of 0.001 to 0.999 nM.

For `COC(=O)N[C@@H](C(=O)N1CCC[C@H]1c1ncc(-c2ccc(-c3ccc(-c4cnc([C@@H]5CCCN5C(=O)N5CCOCC5)[nH]4)cc3)cc2)[nH]1)c1ccccc1` [Example 78, methyl ((1R)-2-((2S)-2-(5-(4′-(2-((2S)-1-(4-morpholinylcarbonyl)-2-pyrrolidinyl)-1H-imidazol-5-yl)-4-biphenylyl)-1H-imidazol-2-yl)-1-pyrrolidinyl)-2-oxo-1-phenylethyl)carbamate], the 50% effective concentration (EC50) was in the range of 0.001 to 0.999 nM.

In the case of `COC(=O)N[C@@H](C(=O)N1CCC[C@H]1c1ncc(-c2ccc(-c3ccc(-c4cnc([C@@H]5CCCN5C(=O)[C@@H]5CCCN5)[nH]4)cc3)cc2)[nH]1)c1ccccc1` [Example 80, methyl ((1R)-2-oxo-1-phenyl-2-((2S)-2-(5-(4′-(2-((2S)-1-L-prolyl-2-pyrrolidinyl)-1H-imidazol-5-yl)-4-biphenylyl)-1H-imidazol-2-yl)-1-pyrrolidinyl)ethyl)carbamate], the EC50 lay within 0.001 to 0.999 nM.

Consider `COC(=O)N[C@@H](C(=O)N1CCC[C@H]1c1ncc(-c2ccc(-c3ccc(-c4cnc([C@@H]5CCCN5C(=O)[C@@H]5CC(F)(F)CN5)[nH]4)cc3)cc2)[nH]1)c1ccccc1` [Example 81, methyl ((1R)-2-((2S)-2-(5-(4′(2-((2S)-1-(4,4-difluoro-L-prolyl)-2-pyrrolidinyl)-1H-imidazol-5-yl)-4-biphenylyl)-1H-imidazol-2-yl)-1-pyrrolidinyl)-2-oxo-1-phenylethyl)carbamate], for which the 50% effective concentration (EC50) is 0.001 to 0.999 nM.

For the molecule `COC(=O)N[C@@H](C(=O)N1CCC[C@H]1c1ncc(-c2ccc(-c3ccc(-c4cnc([C@@H]5CCCN5C(=O)[C@@H]5C[C@@H](F)CN5)[nH]4)cc3)cc2)[nH]1)c1ccccc1` [Example 82, methyl ((1R)-2-((2S)-2-(5-(4′-(2-((2S)-1-((4R)-4-fluoro-L-prolyl)-2-pyrrolidinyl)-1H-imidazol-5-yl)-4-biphenylyl)-1H-imidazol-2-yl)-1-pyrrolidinyl)-2-oxo-1-phenylethyl)carbamate], the concentration giving a half-maximal response (EC50) lay within 0.001 to 0.999 nM.

With `COC(=O)N[C@@H](C(=O)N1CCC[C@H]1c1ncc(-c2ccc(-c3ccc(-c4cnc([C@@H]5CCCN5C(=O)[C@H](C)N)[nH]4)cc3)cc2)[nH]1)c1ccccc1` [Example 84, methyl ((1R)-2-((2S)-2-(5-(4′-(2-((2S)-1-L-alanyl-2-pyrrolidinyl)-1H-imidazol-5-yl)-4-biphenylyl)-1H-imidazol-2-yl)-1-pyrrolidinyl)-2-oxo-1-phenylethyl)carbamate], the half-maximal effective concentration (EC50) is 0.001 to 0.999 nM.

One may read the EC50 as the midpoint of the concentration-response curve.
